Tests used:
[1] = test system: Ramos cells; assay: Cytotoxicity in Ramos cells; assay type: cell-based; conditions: Homo sapiens, read-out: Ramos cell EC50
Procedure: (§1) Compounds in Example 4 above were tested for activity against F1F0-ATPase by measuring ATP synthesis. In addition, the compounds were assessed for cytotoxicity in Ramos cells. Inhibition of ATP synthesis by the F1F0-ATPase and cytotoxicity in Ramos cells were measured according to the procedures described in K. M. Johnson et al. Chemistry & Biology 2005, 12, 485-496.

[2] = target: T1, F1F0-ATPase (Bos taurus, UniProt P13621); assay: Inhibition of ATP synthesis by the F1F0-ATPase; assay type: biochemical
T1 construct: from tissue
Procedure: as §1

Structure (SMILES): CC(C)(C)C(=O)N[C@H]1CC[C@H](N/C(=N\C(=O)c2ccc(F)c(F)c2)Nc2cc(F)cc(Cl)c2)CC1 [Compound 102]
- EC50 [1]: < 10 µM
- IC50 [2]: < 10 µM

Structure (SMILES): CCOC(=O)N[C@H]1CC[C@H](N/C(=N\C(=O)c2ccc(F)c(F)c2)NC(C)(C)C)CC1 [Compound 103]
- EC50 [1]: > 10 µM
- IC50 [2]: > 10 µM

Structure (SMILES): CCOC(=O)N[C@H]1CC[C@H](N/C(=N\C(=O)c2ccc(F)c(F)c2)NC2CC2)CC1 [Compound 104]
- EC50 [1]: > 10 µM
- IC50 [2]: > 10 µM

Structure (SMILES): CCOC(=O)N[C@H]1CC[C@H](N/C(=N\C(=O)c2ccc(F)c(F)c2)NC(C)(C)C(F)(F)F)CC1 [Compound 105]
- EC50 [1]: > 10 µM
- IC50 [2]: > 10 µM

Structure (SMILES): CCOC(=O)N[C@H]1CC[C@H](N/C(=N\C(=O)c2ccc(F)c(F)c2)NC2(C)CCC2)CC1 [Compound 106]
- EC50 [1]: > 10 µM
- IC50 [2]: > 10 µM

Structure (SMILES): CCOC(=O)N[C@H]1CC[C@H](N/C(=N\C(=O)c2ccc(F)c(F)c2)NCC(F)(F)F)CC1 [Compound 107]
- EC50 [1]: > 10 µM
- IC50 [2]: > 10 µM

Structure (SMILES): CC(C)(C)N/C(=N/C(=O)c1ccc(F)c(F)c1)N[C@H]1CC[C@H](O)CC1 [Compound 108]
- EC50 [1]: > 10 µM
- IC50 [2]: > 10 µM

Structure (SMILES): CCOC(=O)N[C@H]1CC[C@H](N/C(=N\C(=O)c2ccc(F)c(F)c2)NC2CCCC2)CC1 [Compound 109]
- EC50 [1]: > 10 µM
- IC50 [2]: > 10 µM

Structure (SMILES): CCOC(=O)N[C@H]1CC[C@H](N/C(=N\C(=O)c2ccc(C(F)(F)F)cc2)NC2CCCC2)CC1 [Compound 110]
- EC50 [1]: > 10 µM
- IC50 [2]: < 10 µM

Structure (SMILES): CCOC(=O)N[C@H]1CC[C@H](N/C(=N\C(=O)c2ccc(C(F)(F)F)cc2)NC(C)(C)C)CC1 [Compound 111]
- EC50 [1]: > 10 µM
- IC50 [2]: < 10 µM

Structure (SMILES): CC(C)(C)N/C(=N/C(=O)c1ccc(C(F)(F)F)cc1)N[C@H]1CC[C@H](Nc2ncccn2)CC1 [Compound 112]
- EC50 [1]: > 10 µM
- IC50 [2]: > 10 µM

Structure (SMILES): CC1(N/C(=N/C(=O)c2ccc(C(F)(F)F)cc2)N[C@H]2CC[C@H](Nc3ncccn3)CC2)CCC1 [Compound 113]
- EC50 [1]: < 10 µM
- IC50 [2]: < 10 µM

Structure (SMILES): O=C(/N=C(/NC1CCCC1)N[C@H]1CC[C@H](Nc2ncccn2)CC1)c1ccc(C(F)(F)F)cc1 [Compound 114]
- EC50 [1]: < 10 µM
- IC50 [2]: < 10 µM

Structure (SMILES): O=C(/N=C(/Nc1cc(F)cc(Cl)c1)N[C@H]1CC[C@H](Nc2ncccn2)CC1)c1ccc(C(F)(F)F)cc1 [Compound 115]
- EC50 [1]: < 10 µM
- IC50 [2]: < 10 µM

Structure (SMILES): O=C(/N=C(/Nc1cccc(C(F)(F)F)c1)N[C@H]1CC[C@H](Nc2ncccn2)CC1)c1ccc(C(F)(F)F)cc1 [Compound 116]
- EC50 [1]: < 10 µM
- IC50 [2]: < 10 µM

Structure (SMILES): O=C(/N=C(/Nc1cc(F)cc(Cl)c1)N[C@H]1CC[C@H](Nc2cnccn2)CC1)c1ccc(F)c(F)c1 [Compound 117]
- EC50 [1]: < 10 µM
- IC50 [2]: < 10 µM

Structure (SMILES): O=C(/N=C(/Nc1cc(F)cc(Cl)c1)N[C@H]1CC[C@H](Nc2ncccn2)CC1)c1ccc(Cl)cc1 [Compound 118]
- EC50 [1]: < 10 µM
- IC50 [2]: < 10 µM

Structure (SMILES): O=C(/N=C(/Nc1cccc(C(F)(F)F)c1)N[C@H]1CC[C@H](Nc2ncccn2)CC1)c1ccc(Cl)cc1 [Compound 119]
- EC50 [1]: < 10 µM
- IC50 [2]: < 10 µM

Structure (SMILES): O=C(/N=C(/Nc1cc(F)cc(Cl)c1)N[C@H]1CC[C@@H](Nc2ncccn2)CC1)c1ccc(F)c(F)c1 [Compound 120]
- EC50 [1]: < 10 µM
- IC50 [2]: < 10 µM

Structure (SMILES): CC1(N/C(=N/C(=O)c2ccc(C(F)(F)F)cc2)N[C@H]2CC[C@H](Nc3ncccn3)CC2)CCCC1 [Compound 121]
- EC50 [1]: < 10 µM
- IC50 [2]: < 10 µM

Structure (SMILES): CC1(N/C(=N/C(=O)c2ccc(Cl)cc2)N[C@H]2CC[C@H](Nc3ncccn3)CC2)CCCC1 [Compound 122]
- EC50 [1]: < 10 µM
- IC50 [2]: < 10 µM

Structure (SMILES): O=C(/N=C(/Nc1cc(F)cc(Cl)c1)N[C@H]1CCCC[C@H]1O)c1ccc(C(F)(F)F)cc1 [Compound 123]
- EC50 [1]: < 10 µM
- IC50 [2]: < 10 µM

Structure (SMILES): O=C(/N=C(/Nc1cc(F)cc(Cl)c1)NC1CCCC(Nc2ncccn2)C1)c1ccc(F)c(F)c1 (stereo not shown) [Compound 124]
- EC50 [1]: < 10 µM
- IC50 [2]: < 10 µM

Structure (SMILES): CCOC(=O)N[C@H]1CCC[C@@H](N/C(=N\C(=O)c2ccc(F)c(F)c2)Nc2cc(F)cc(Cl)c2)C1 [Compound 125]
- EC50 [1]: < 10 µM
- IC50 [2]: < 10 µM

Structure (SMILES): CCOC(=O)N[C@@H]1CCC[C@@H](N/C(=N\C(=O)c2ccc(F)c(F)c2)Nc2cc(F)cc(Cl)c2)C1 [Compound 126]
- EC50 [1]: < 10 µM
- IC50 [2]: < 10 µM

Structure (SMILES): O=C(/N=C(/Nc1cc(F)cc(Cl)c1)N[C@H]1CCCC[C@H]1O)c1ccc(F)c(F)c1 [Compound 128]
- EC50 [1]: < 10 µM
- IC50 [2]: < 10 µM

Structure (SMILES): O=C(/N=C(/Nc1cc(F)cc(Cl)c1)N[C@H]1CCCC[C@@H]1O)c1ccc(F)c(F)c1 [Compound 129]
- EC50 [1]: < 10 µM
- IC50 [2]: < 10 µM

Structure (SMILES): O=C(/N=C(/Nc1cc(F)cc(Cl)c1)N[C@H]1CC[C@H](NC(=O)C(F)(F)F)CC1)c1ccc(F)c(F)c1 [Compound 130]
- EC50 [1]: < 10 µM
- IC50 [2]: < 10 µM

Structure (SMILES): O=C(/N=C(/Nc1cccc(Cl)c1)N[C@H]1CC[C@H](NC(=O)c2cnccn2)CC1)c1ccc(F)c(F)c1 [Compound 131]
- EC50 [1]: < 10 µM
- IC50 [2]: < 10 µM

Structure (SMILES): Cc1cc(C(=O)N[C@H]2CC[C@H](N/C(=N\C(=O)c3ccc(F)c(F)c3)Nc3cccc(Cl)c3)CC2)ccn1 [Compound 132]
- EC50 [1]: < 10 µM
- IC50 [2]: < 10 µM

Structure (SMILES): O=C(/N=C(/Nc1cccc(Cl)c1)N[C@H]1CC[C@H](NC(=O)c2cccs2)CC1)c1ccc(F)c(F)c1 [Compound 133]
- EC50 [1]: < 10 µM
- IC50 [2]: < 10 µM

Structure (SMILES): O=C(/N=C(/Nc1cccc(Cl)c1)N[C@H]1CC[C@H](NC(=O)c2ccccc2)CC1)c1ccc(F)c(F)c1 [Compound 134]
- EC50 [1]: < 10 µM
- IC50 [2]: < 10 µM

Structure (SMILES): CN(C)C(=O)N[C@H]1CC[C@H](N/C(=N\C(=O)c2ccc(F)c(F)c2)Nc2cc(F)cc(Cl)c2)CC1 [Compound 135]
- EC50 [1]: < 10 µM
- IC50 [2]: < 10 µM

Structure (SMILES): O=C(/N=C(/Nc1cc(F)cc(Cl)c1)N[C@H]1CC[C@H](NC(=O)N2CCOCC2)CC1)c1ccc(F)c(F)c1 [Compound 136]
- EC50 [1]: < 10 µM
- IC50 [2]: < 10 µM

Structure (SMILES): O=C(/N=C(/Nc1cc(F)cc(Cl)c1)N[C@H]1CC[C@H](NC(=O)N2CCCC2)CC1)c1ccc(F)c(F)c1 [Compound 137]
- EC50 [1]: < 10 µM
- IC50 [2]: < 10 µM

Structure (SMILES): CC(C)(C)CN/C(=N/C(=O)c1ccc(F)c(F)c1)N[C@H]1CC[C@H](Nc2ncccn2)CC1 [Compound 138]
- EC50 [1]: < 10 µM
- IC50 [2]: < 10 µM

Structure (SMILES): O=C(/N=C(/Nc1cc(F)cc(Cl)c1)N[C@H]1CC[C@H](NC(=O)c2cccs2)CC1)c1ccc(F)c(F)c1 [Compound 139]
- EC50 [1]: < 10 µM
- IC50 [2]: < 10 µM

Structure (SMILES): O=C(/N=C(/Nc1cc(F)cc(Cl)c1)N[C@H]1CC[C@H](NC(=O)c2ccccc2)CC1)c1ccc(F)c(F)c1 [Compound 140]
- EC50 [1]: < 10 µM
- IC50 [2]: < 10 µM

Structure (SMILES): CC(C)(C)CN/C(=N/C(=O)c1ccc(F)c(F)c1)N[C@H]1CC[C@H](NC(=O)c2cccs2)CC1 [Compound 141]
- EC50 [1]: < 10 µM
- IC50 [2]: < 10 µM

Structure (SMILES): CC(C)(C)CN/C(=N/C(=O)c1ccc(F)c(F)c1)N[C@H]1CC[C@H](NC(=O)c2ccccc2)CC1 [Compound 142]
- EC50 [1]: < 10 µM
- IC50 [2]: < 10 µM

Structure (SMILES): O=C(/N=C(/NC1CCCC1)N[C@H]1CC[C@H](Nc2ncccn2)CC1)c1ccc(Cl)c(F)c1 [Compound 143]
- EC50 [1]: < 10 µM
- IC50 [2]: < 10 µM

Structure (SMILES): CC(C)(C)CN/C(=N/C(=O)c1ccc(Cl)c(F)c1)N[C@H]1CC[C@H](Nc2ncccn2)CC1 [Compound 144]
- EC50 [1]: < 10 µM
- IC50 [2]: < 10 µM

Structure (SMILES): CCOC(=O)NC1CCC(N/C(=N\C(=O)c2ccc(F)c(S(C)(=O)=O)c2)NCc2ccc(F)cc2Cl)CC1 (stereo not shown) [Compound 145]
- EC50 [1]: > 10 µM
- IC50 [2]: > 10 µM

Structure (SMILES): CCOC(=O)NC1CCC(N/C(=N\C(=O)c2ccc(F)c(S(C)(=O)=O)c2)Nc2cc(F)cc(Cl)c2)CC1 (stereo not shown) [Compound 146]
- EC50 [1]: > 10 µM
- IC50 [2]: > 10 µM

Structure (SMILES): COC(=O)NC1CCC(N/C(=N\C(=O)c2ccc(C)cc2)Nc2cc(F)cc(Cl)c2)CC1 (stereo not shown) [Compound 147]
- EC50 [1]: < 10 µM
- IC50 [2]: < 10 µM

Structure (SMILES): Cc1ccc(C(=O)/N=C(/Nc2cc(F)cc(Cl)c2)NC2CCC(NC(=O)c3ccccc3)CC2)cc1 (stereo not shown) [Compound 148]
- EC50 [1]: < 10 µM
- IC50 [2]: < 10 µM

Structure (SMILES): CCOC(=O)NC1CCC(N/C(=N\C(=O)c2ccccc2)Nc2cc(F)cc(Cl)c2)CC1 (stereo not shown) [Compound 149]
- EC50 [1]: < 10 µM
- IC50 [2]: < 10 µM

Structure (SMILES): COC(=O)NC1CCC(N/C(=N\C(=O)c2ccccc2)Nc2cc(F)cc(Cl)c2)CC1 (stereo not shown) [Compound 150]
- EC50 [1]: > 10 µM
- IC50 [2]: < 10 µM

Structure (SMILES): O=C(/N=C(/Nc1cc(F)cc(Cl)c1)NC1CCC(NC(=O)c2ccccc2)CC1)c1ccccc1 (stereo not shown) [Compound 151]
- EC50 [1]: < 10 µM
- IC50 [2]: < 10 µM

Structure (SMILES): CCOC(=O)NC1CCC(N/C(=N\C(=O)c2ccc(OC)cc2)Nc2cc(F)cc(Cl)c2)CC1 (stereo not shown) [Compound 152]
- EC50 [1]: < 10 µM
- IC50 [2]: < 10 µM
